Among the data in PubChem BioAssay AID248 (DTP/NCI, 2004) are T/C values, retold here.

“And” between values parts separate entries of the source, which are not always exact repeats. Equal entries are not always repeated. Toxic doses and inconclusive results are not listed.

In the experiment the test system is L1210 leukemia ip in BDF1 mice, survival T/C. Put plainly: NCI In Vivo Anticancer Drug Screen. Data for tumor model L1210 Leukemia (intraperitoneal) in B6D2F1 (BDF1) mice. The following applies: endpoint: mean survival time, higher = longer survival. The gist of the method: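 Tumor was transplanted into mice, which were then dosed with test compound or vehicle alone. Survival was recorded for each group, and the treated figure was expressed relative to the control figure.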

Setting [1] is: dose: 100.0 mg/kg/injection, schedule: Q01DX001 (ip), vehicle: saline.
[2] abbreviates: dose: 200.0 mg/kg/injection, schedule: Q01DX001 (ip), vehicle: saline.
The mark [3] stands for this setting: dose: 400.0 mg/kg/injection, schedule: Q01DX001 (ip), vehicle: saline.
Setting [4] is: dose: 25.0 mg/kg/injection, schedule: Q01DX009 (ip), vehicle: Klucel (hydroxypropylcellulose) (HPC).
Where [5] appears, read: dose: 50.0 mg/kg/injection, schedule: Q01DX009 (ip), vehicle: Klucel (hydroxypropylcellulose) (HPC).

Regarding `COc1ccc(CC(N)C(=O)O)cc1N(CCCl)CCCl` (stereo not given), the T/C by setting is: (dose: 0.07 mg/kg/injection, schedule: Q01DX009 (ip), vehicle: carboxymethylcellulose (CMC)) 116 % of control; (dose: 0.08 mg/kg/injection, schedule: Q01DX009 (ip), vehicle: carboxymethylcellulose (CMC)) 117 % of control; (dose: 0.4 mg/kg/injection, schedule: Q01DX009 (ip), vehicle: carboxymethylcellulose (CMC)) 110 % of control; (dose: 0.6 mg/kg/injection, schedule: Q01DX001 (ip), vehicle: carboxymethylcellulose (CMC)) 111 % of control and 108 % of control; (dose: 1.2 mg/kg/injection, schedule: Q01DX001 (ip), vehicle: carboxymethylcellulose (CMC)) 120 % of control and 106 % of control; (dose: 1.2 mg/kg/injection, schedule: Q01DX009 (ip), vehicle: carboxymethylcellulose (CMC)) 150 % of control. Moreover, the T/C by setting is: (dose: 1.5 mg/kg/injection, schedule: Q01DX009 (ip), vehicle: carboxymethylcellulose (CMC)) 151 % of control; (dose: 2.0 mg/kg/injection, schedule: Q01DX009 (ip), vehicle: carboxymethylcellulose (CMC)) 166 % of control; (dose: 2.5 mg/kg/injection, schedule: Q01DX001 (ip), vehicle: carboxymethylcellulose (CMC)) 121 % of control and 110 % of control; (dose: 2.5 mg/kg/injection, schedule: Q01DX009 (ip), vehicle: carboxymethylcellulose (CMC)) 227 % of control; (dose: 3.0 mg/kg/injection, schedule: Q01DX009 (ip), vehicle: carboxymethylcellulose (CMC)) 183 % of control; (dose: 4.5 mg/kg/injection, schedule: Q01DX009 (ip), vehicle: carboxymethylcellulose (CMC)) 180 % of control and 213 % of control. Further, the T/C is 123 % of control (dose: 5.0 mg/kg/injection, schedule: Q01DX001 (ip), vehicle: carboxymethylcellulose (CMC)); 92 % of control (dose: 5.0 mg/kg/injection, schedule: Q01DX009 (ip), vehicle: carboxymethylcellulose (CMC)); 151 % of control and 152 % of control (dose: 5.5 mg/kg/injection, schedule: Q01DX001 (ip), vehicle: carboxymethylcellulose (CMC)); 98 % of control (dose: 6.0 mg/kg/injection, schedule: Q01DX009 (ip), vehicle: carboxymethylcellulose (CMC)); 116 % of control (dose: 7.0 mg/kg/injection, schedule: Q01DX009 (ip), vehicle: carboxymethylcellulose (CMC)); 206 % of control (dose: 11.0 mg/kg/injection, schedule: Q01DX001 (ip), vehicle: carboxymethylcellulose (CMC)). The T/C by setting is: (dose: 12.0 mg/kg/injection, schedule: Q01DX009 (ip), vehicle: carboxymethylcellulose (CMC)) 93 % of control; (dose: 16.5 mg/kg/injection, schedule: Q01DX001 (ip), vehicle: carboxymethylcellulose (CMC)) 173 % of control; (dose: 25.0 mg/kg/injection, schedule: Q01DX001 (ip), vehicle: carboxymethylcellulose (CMC)) 217 % of control.

Take `OC1/C=C\CCCCC1` (stereo not given): the T/C under setting [1] is 98 % of control, the T/C under setting [2] is 93 % of control and the T/C under setting [3] was 98 % of control.

On to `Cc1c(C)c(C)c(CCl)c(CCl)c1C`, for which the T/C was 97 % of control (dose: 100.0 mg/kg/injection, schedule: Q04DX002 (ip), vehicle: Klucel (hydroxypropylcellulose) (HPC)); 90 % of control (dose: 200.0 mg/kg/injection, schedule: Q04DX002 (ip), vehicle: Klucel (hydroxypropylcellulose) (HPC)); 122 % of control (dose: 400.0 mg/kg/injection, schedule: Q04DX002 (ip), vehicle: Klucel (hydroxypropylcellulose) (HPC)).

In the case of `O=C(Nc1ccccc1Cl)Nc1ccccc1[N+](=O)[O-]`, the T/C (dose: 100.0 mg/kg/injection, schedule: Q04DX002 (ip), vehicle: saline + alcohol) was 111 % of control; the T/C (dose: 200.0 mg/kg/injection, schedule: Q04DX002 (ip), vehicle: saline + alcohol) is 100 % of control; the T/C (dose: 400.0 mg/kg/injection, schedule: Q04DX002 (ip), vehicle: saline + alcohol) is 96 % of control.

As for `CCN=C(NC(=S)Nc1ccc(Cl)cc1)SCC`, the T/C (dose: 100.0 mg/kg/injection, schedule: Q04DX002 (ip), vehicle: saline with Tween-80) was 98 % of control; the T/C (dose: 200.0 mg/kg/injection, schedule: Q04DX002 (ip), vehicle: saline with Tween-80) was 98 % of control; the T/C (dose: 400.0 mg/kg/injection, schedule: Q04DX002 (ip), vehicle: saline with Tween-80) was 95 % of control.

Consider `N#CCNC(=O)c1ccc(I)cc1`, for which the T/C (dose: 100.0 mg/kg/injection, schedule: Q01DX001 (ip), vehicle: Klucel (hydroxypropylcellulose) (HPC)) is 111 % of control; the T/C (dose: 200.0 mg/kg/injection, schedule: Q01DX001 (ip), vehicle: Klucel (hydroxypropylcellulose) (HPC)) is 95 % of control; the T/C (dose: 400.0 mg/kg/injection, schedule: Q01DX001 (ip), vehicle: Klucel (hydroxypropylcellulose) (HPC)) is 106 % of control.

As to `O=C(O)CC(NC(=O)c1ccccc1)C(=O)O` (stereo not given), the T/C is 93 % of control (dose: 50.0 mg/kg/injection, schedule: Q01DX009 (ip), vehicle: saline); 89 % of control (dose: 100.0 mg/kg/injection, schedule: Q01DX009 (ip), vehicle: saline); 97 % of control (dose: 200.0 mg/kg/injection, schedule: Q01DX009 (ip), vehicle: saline).

On to `Nc1ccc(N=Nc2ccc(S(=O)(=O)Nc3ccccn3)cc2)c(N)n1`, for which the T/C runs as follows: under setting [1], 96 % of control; under setting [2], 102 % of control; under setting [3], 105 % of control.

`O=C1C(Cl)=C(Cl)C(Cl)(Cl)C1(Cl)Cl`: the T/C by setting is: (dose: 12.5 mg/kg/injection, schedule: Q01DX009 (ip), vehicle: Klucel (hydroxypropylcellulose) (HPC)) 98 % of control; (dose: 12.5 mg/kg/injection, schedule: Q04DX003 (ip), vehicle: Klucel (hydroxypropylcellulose) (HPC)) 98 % of control; under setting [4], 101 % of control; (dose: 25.0 mg/kg/injection, schedule: Q04DX003 (ip), vehicle: Klucel (hydroxypropylcellulose) (HPC)) 96 % of control; under setting [5], 94 % of control; (dose: 50.0 mg/kg/injection, schedule: Q04DX003 (ip), vehicle: Klucel (hydroxypropylcellulose) (HPC)) 100 % of control.

In the case of `COc1c2ccoc2c(OCC=C(C)C)c2oc(=O)ccc12`, the T/C reads like this: (dose: 100.0 mg/kg/injection, schedule: Q01DX009 (ip), vehicle: other) 98 % of control; (dose: 100.0 mg/kg/injection, schedule: Q04DX003 (ip), vehicle: saline sonified) 107 % of control; (dose: 200.0 mg/kg/injection, schedule: Q01DX009 (ip), vehicle: other) 111 % of control; (dose: 200.0 mg/kg/injection, schedule: Q04DX003 (ip), vehicle: saline sonified) 102 % of control; (dose: 400.0 mg/kg/injection, schedule: Q01DX009 (ip), vehicle: other) 95 % of control; (dose: 400.0 mg/kg/injection, schedule: Q04DX003 (ip), vehicle: saline sonified) 97 % of control.

For the compound `CCCCN1C(=O)CCC1=O`, the T/C reads like this: (dose: 100.0 mg/kg/injection, schedule: Q04DX003 (ip), vehicle: saline) 110 % of control; (dose: 200.0 mg/kg/injection, schedule: Q04DX003 (ip), vehicle: saline) 103 % of control; (dose: 400.0 mg/kg/injection, schedule: Q04DX003 (ip), vehicle: saline) 110 % of control.

`CO[C@@H]([CH2][Hg][S]C#N)[C@@H]([CH2][Hg][S]C#N)OC`: the T/C is, setting by setting: (dose: 6.25 mg/kg/injection, schedule: Q01DX009 (ip), vehicle: saline sonified) 94 % of control; (dose: 12.5 mg/kg/injection, schedule: Q01DX009 (ip), vehicle: saline sonified) 90 % of control; (dose: 12.5 mg/kg/injection, schedule: Q04DX003 (ip), vehicle: saline sonified) 97 % of control; (dose: 25.0 mg/kg/injection, schedule: Q01DX009 (ip), vehicle: saline sonified) 93 % of control; (dose: 25.0 mg/kg/injection, schedule: Q04DX003 (ip), vehicle: saline sonified) 88 % of control.

On to `CC(=O)/C=N/Nc1ccccc1`, for which the T/C was 93 % of control under setting [4]; 97 % of control under setting [5]; 110 % of control (dose: 50.0 mg/kg/injection, schedule: Q04DX003 (ip), vehicle: carboxymethylcellulose (CMC)); 97 % of control (dose: 100.0 mg/kg/injection, schedule: Q01DX009 (ip), vehicle: Klucel (hydroxypropylcellulose) (HPC)); 106 % of control (dose: 100.0 mg/kg/injection, schedule: Q04DX003 (ip), vehicle: carboxymethylcellulose (CMC)).

As for `CC(=O)Nc1ccc(/C=N/N2CCN(/N=C/c3ccc(NC(C)=O)cc3)CC2)cc1`, the T/C under setting [1] was 86 % of control, the T/C under setting [2] was 96 % of control and the T/C under setting [3] is 92 % of control.
